According to patent US4871771A, “Leukotriene antagonists” (SmithKline Beckman Corporation, priority 1988, dated 1989):

Tests used:
[1] = target: T1, [^3 H]-LTB4 binding sites on human U937 cell membranes (Homo sapiens, UniProt Q15722); assay: Receptor binding affinity: competition for [3H]-LTB4 binding sites on human U937 cell membranes; conditions: [3H]-LTB4 about 0.2 nM, 25°, 30 minutes
T1 construct: Harvested U937 cells were washed with 50 mM Tris-HCl; endogenous in cells; host or cells: U937 cells (membrane-enriched fraction)

[2] = target: T2, LTB4 Induced Ca^2 + flux (U937 cells) (Homo sapiens, UniProt Q15722); assay: LTB4 induced calcium mobilization (Ca2+ flux) in U937 cells measured with fura-2; format: cell-based
T2 construct: endogenous in cells; host or cells: U937 cells, DMSO-differentiated, intact
Method: The methods employed were as follows.
Cells were grown both in T-flasks and in Spinner culture.
Harvested cells were resuspended at 2×10^6 cells/ml in Krebs Ringer Hensilet buffer containing 0.1% BSA (RIA grade), 1.1 mM MgSO4, 1.0 mM CaCl2 and 5 mM HEPES (pH 7.4, buffer B). The diacetomethoxy ester of fura-2 (fura-2/AM) was added to a final concentration of 2 uM and cells incubated in the dark for 30 minutes at 37° C. The cells were centrifuged at 800×g for 10 minutes and resuspended at 2×10^6 cells/ml in fresh buffer B and incubated at 37° C. for 20 minutes to allow for complete hydrolysis of entrapped ester. The cells were centrifuged at 800×g for 10 minutes and resuspended in cold fresh buffer B at 5×10^6 cells/ml. Cells were maintained on ice in the dark until used for fluorescent measurements.
The fluorescence of fura-2 containing U937 cells was measured with a fluorometer designed by the Johnson Foundation Biomedical Instrumentation Group. Fluorometer is equipped with temperature control and a magnetic stirrer under the cuvette holder. […] All experiments were performed at 37° C. with constant mixing.
U937 cells were diluted with fresh buffer to a concentration of 1×10^6 cells/ml and maintained in the dark on ice. Aliquots (2 ml) of the cell suspension were put into 4 ml cuvettes and the temperature brought up to 37° C. (maintained in 37° C. water bath for 10 min). Cuvettes were transferred to the fluorometer and fluorescence measured for about one minute before addition of stimulants or antagonists and followed for about 2 minutes post stimulus. Agonists and antagonists were added as 2 ul aliquots.
Antagonists were added first to the cells in the fluorometer in order to detect potential agonist activity. […] [Ca^2+ ]i was calculated using the following formula: [formula] F was the maximum relative fluorescence measurement of the sample. Fmax was determined by lysing the cells with 10 ul of 10% Triton X-100 (final Concentration 0.02%). After Fmax was determined 67 ul of 100 mM EGTA solution (pH 10) was added to totally chelate the Ca^2+ and quench the fura-2 signal and obtain the Fmin. […] The Ki for calcium mobilization was determined using the formula: [formula]

T2 sequence (Q15722 whole entry): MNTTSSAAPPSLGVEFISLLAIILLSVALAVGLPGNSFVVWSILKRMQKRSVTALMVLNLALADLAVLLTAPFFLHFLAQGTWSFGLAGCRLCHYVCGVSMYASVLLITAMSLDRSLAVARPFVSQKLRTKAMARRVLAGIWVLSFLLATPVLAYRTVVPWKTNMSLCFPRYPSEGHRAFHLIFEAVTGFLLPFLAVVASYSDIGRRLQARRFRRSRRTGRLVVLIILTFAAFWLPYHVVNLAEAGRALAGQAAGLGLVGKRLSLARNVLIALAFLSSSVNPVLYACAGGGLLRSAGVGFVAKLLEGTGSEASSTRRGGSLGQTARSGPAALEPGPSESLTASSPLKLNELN
T1 sequence (Q15722 whole entry): as above

Row | Ki [1] [µM] | Ki [2] [µM] | SMILES
1 | 6.5 |  | CCCCCCCCCCCCc1ccccc1C(SCCC(=O)O)SCCC(=O)O
2 | 5.3 |  | CCCCCCCCCCCOc1ccccc1C(SCCC(=O)O)SCCC(=O)O
3 | 4.2 | 5.6 | CCCCCCCCCCCOc1ccc(Br)cc1C(SCCC(=O)O)SCCC(=O)O
4 | 7 |  | CCCCCCCCCCC#Cc1ccccc1C(SCCC(=O)O)SCCC(=O)O
5 | 2.2 | 5 | CCCCCCCCCCCOc1ccc([N+](=O)[O-])cc1C(SCCC(=O)O)SCCC(=O)O
6 | 4.4 | 7 | O=C(O)CCSC(SCCC(=O)O)c1ccccc1CCCCCCCCc1ccccc1
7 | 5.3 |  | CCCCCCCCCCCCc1ccccc1C(SCCC(=O)O)[S+]([O-])CCC(=O)O (stereo not drawn)
8 | 7.3 |  | CCCCCCCCCC/C=C\c1ccccc1C(SCCC(=O)O)SCCC(=O)O
9 | 6 |  | CCCCCCCCCCCOc1ccc(O)cc1C(SCCC(=O)O)SCCC(=O)O
10 | 9.6 |  | O=C(O)CCSC(SCCC(=O)O)c1cc(C(F)(F)F)ccc1CCCCCCCCc1ccccc1
11 | 4.3 |  | CCCCCCCCCC/C=C/c1ccccc1C(SCCC(=O)O)SCCC(=O)O
12 | 2.1 | 5.2 | O=C(O)CCSC(SCCC(=O)O)c1cccc(CCCCCCCCc2ccccc2)c1
13 | 1.3 | 8.7 | O=C(O)CCSC(SCCC(=O)O)c1ccc(C(F)(F)F)cc1CCCCCCCCc1ccccc1
14 | 4.5 |  | O=C(O)CCSC(SCCC(=O)O)c1ccccc1CCCCCCc1ccccc1
15 | 1.2 | 7.6 | COc1ccc(SCCCCCCCc2ccccc2C(SCCC(=O)O)SCCC(=O)O)cc1
16 | 11 | 4.8 | O=C(O)CCSC(SCCC(=O)O)c1ccccc1CCCCCCCCCCc1ccccc1
17 | 10 |  | C#CCCCCCCCCCOc1ccccc1C(SCCC(=O)O)SCCC(=O)O
18 | 5.3 |  | O=C(O)CCSC(SCCC(=O)O)c1ccccc1OCCCCCCCc1ccccc1
19 | 2.8 | 6.7 | O=C(O)CCSC(SCCC(=O)O)c1ccccc1CCCCCCCSc1ccc(Br)cc1
20 | 3.3 | 6.4 | O=C(O)CCSC(SCCC(=O)O)c1ccccc1CCCCCCCSc1ccc(F)cc1
21 |  | 7.8 | O=C(O)CCSC(SCCC(=O)O)c1ccccc1CCCCCCCCCCCC(F)(F)F
